Laboratory results: article PMC3096752 (Clinical cancer research : an official journal of the …, 2011)

Legend:
[1] = Alvocidib plasma pharmacokinetics; format: in vivo, human; conditions: mean ± SD
[2] = test system: patients with B cell malignancies (multiple myeloma, indolent and mantle cell lymphoma); assay: Phase I 3+3 dose escalation: DLT and MTD; format: in vivo, human
refractory/relapsed MM = conditions: cited from earlier work
[3] = test system: refractory/relapsed indolent NHL (including follicular, marginal zone and SLL); conditions: cited from earlier work
mantle cell lymphoma = conditions: bortezomib alone; cited from earlier work
[4] = Dose Level 1 (n=8 doses): alvocidib 20+20 mg/m^2
[5] = Dose Level 2 (n=6 doses): alvocidib 30+30 mg/m^2
[6] = Dose Level 3 (n=3 doses): alvocidib 30+50 mg/m^2

In the case of CN1CC[C@H](c2c(O)cc(O)c3c(=O)cc(-c4ccccc4Cl)oc23)[C@H](O)C1 [alvocidib], the CL [1, 4] is reported as 13,243 ± 2,540 ml/h/m^2, the K10 [1, 4] is reported as 0.803 ± 0.237 h⁻¹ and the V1 [1, 4] is reported as 18,512 ± 8,687 ml/m^2. The CL [1, 5] was 12,825 ± 3,267 ml/h/m^2, the K10 [1, 5] was 1.04 ± 0.438 h⁻¹ and the V1 [1, 5] was 14,888 ± 7,685 ml/m^2. For the same molecule, the CL [1, 6] was 18,137 ± 8,097 ml/h/m^2, the K10 [1, 6] was 0.569 ± 0.169 h⁻¹ and the V1 [1, 6] was 31,380 ± 7,368 ml/m^2. The V2 [1, 6] was 48,448 ± 23,397 ml/m^2, the “MTD, alvocidib 4 hour infusion” value ([2]; days 1 and 8, 21 day cycle, after the 30 min bolus, in combination with bortezomib) was 30 mg/m^2 and the “MTD, alvocidib 30 min bolus infusion” value ([2]; days 1 and 8, 21 day cycle, in combination with bortezomib) was 30 mg/m^2.
In the case of CC(C)C[C@H](NC(=O)[C@H](Cc1ccccc1)NC(=O)c1cnccn1)B(O)O [bortezomib], the “responses to single-agent bortezomib” value (refractory/relapsed MM) is listed as “approximately 35%”, the “response rates to single agent bortezomib” value [3] is listed as “approximately 13.3%” and the “single-agent activity (response rate)” value (mantle cell lymphoma) is listed as “approximately 33%”. The “MTD, bortezomib” value ([2]; IV push days 1, 4, 8, 11, 21 day cycle, in combination with alvocidib) was 1.3 mg/m^2.
